Test results from ChEMBL document CHEMBL1201862, “PubChem BioAssay data set” (2004).
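Test compounds were applied to cells in 96-well plates for 48 hours at 5 doses. At the GI50, growth is halved.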 Calls of active or inactive are those of the source. Cut-off read from the data, not from the text of the source: active = GI50 up to about 1.1 µM and inactive = higher. Where a SMILES comes first, the peptide text is derived from it. [ ]: non-standard residue; d: D form. The star is where a group is joined. Phe(4-NO2) = N[CH](Cc1ccc([N+](=O)[O-])cc1)C(=O)O; Boc = CC(C)(C)OC(=O)*; OBn = c1ccc(CO*)cc1

What was measured:
Assay in all cases: DTP human tumour cell line panel, 48 h
786-0 = tested on: 786-0
Hs-578T = tested on: Hs-578T
M14 = tested on: M14
MDA-MB-435 = tested on: MDA-MB-435
A498 = tested on: A498
IGROV-1 = tested on: IGROV-1
SNB-19 = tested on: SNB-19
UACC-257 = tested on: UACC-257
MDA-MB-231 = tested on: MDA-MB-231
ACHN = tested on: ACHN
MOLT-4 = tested on: MOLT-4
T47D = tested on: T47D
HCT-15 = tested on: HCT-15
RXF 393 = tested on: RXF 393
BT-549 = tested on: BT-549
NCI-H522 = tested on: NCI-H522
Malme-3M = tested on: Malme-3M
NCI-H460 = tested on: NCI-H460
SK-MEL-5 = tested on: SK-MEL-5

| Compound | GI50 (786-0) | GI50 (Hs-578T) | GI50 (M14) | GI50 (MDA-MB-435) | GI50 (A498) | GI50 (IGROV-1) | GI50 (SNB-19) | GI50 (UACC-257) | GI50 (MDA-MB-231) | GI50 (ACHN) | GI50 (MOLT-4) | GI50 (T47D) | GI50 (HCT-15) | GI50 (RXF 393) | GI50 (BT-549) | GI50 (NCI-H522) | GI50 (Malme-3M) | GI50 (NCI-H460) | GI50 (SK-MEL-5) |
| --- | --- | --- | --- | --- | --- | --- | --- | --- | --- | --- | --- | --- | --- | --- | --- | --- | --- | --- | --- |
| CC1(C)N=C(N)N=C(N)N1c1ccc(CCCCc2ccc(Cl)cc2Cl)cc1 | 0.5 µM (active) | 4.67 µM (inactive) | 0.914 µM (active) | 0.598 µM (active) | 12.8 µM (inactive) | 0.451 µM (active) | 0.527 µM (active) | 0.659 µM (active) | 2.07 µM (inactive) | 4.57 µM (inactive) | 0.861 µM (active) | 1.29 µM (inactive) | 5.04 µM | 0.891 µM (active) | 1.85 µM (inactive) | 0.433 µM (active) | 0.486 µM (active) | 0.0165 µM (active) | 1.12 µM (inactive) |
| O=C1SC(SCc2ccccc2)=NC12CC2c1ccccc1 (stereo not given) | 19.4 µM (inactive) | 24.3 µM (inactive) | 17.4 µM (inactive) | 22.1 µM (inactive) | 25.5 µM (inactive) | 21.4 µM (inactive) | 26.7 µM (inactive) | 16.8 µM (inactive) | 20.3 µM (inactive) | 17.9 µM (inactive) | 1.34 µM (inactive) | 28.5 µM (inactive) | 20.4 µM | 18.7 µM (inactive) | 20.2 µM (inactive) | 14.5 µM (inactive) | 17.7 µM (inactive) | 18.7 µM (inactive) | 17.8 µM (inactive) |
| COC(=O)CCC(NC(=O)OC(C)(C)C)C(=O)NC(Cc1ccc([N+](=O)[O-])cc1)C(=O)NCC(=O)OCc1ccccc1 (stereo not given) (Boc-Glu(OMe)-[Phe(4-NO2)]-Gly-OBn; configuration not given here) | 45.5 µM (inactive) | 23 µM (inactive) | > 100 µM (inactive) | > 100 µM (inactive) | > 100 µM (inactive) | > 100 µM (inactive) | > 55.7 µM (inactive) | > 100 µM (inactive) | > 60 µM (inactive) | > 100 µM (inactive) | > 100 µM (inactive) | > 100 µM (inactive) | > 100 µM | 26.9 µM (inactive) | 20.4 µM (inactive) | > 100 µM (inactive) | > 100 µM (inactive) | > 100 µM (inactive) | > 100 µM (inactive) |
| CN1CCN(CCCCN2c3ccccc3Sc3ccc(N=[N+]=[N-])cc32)CC1 | 7.76 µM (inactive) | 7.31 µM (inactive) | 2.05 µM (inactive) | 2.07 µM (inactive) | 13.8 µM (inactive) | 7.91 µM (inactive) | 13.4 µM (inactive) | 2.06 µM (inactive) | 4.3 µM (inactive) | 8.65 µM (inactive) | 2.41 µM (inactive) | 14.9 µM (inactive) | 7.36 µM | 5.16 µM (inactive) | 9.77 µM (inactive) | 5.01 µM (inactive) | 2.43 µM (inactive) | 6.01 µM (inactive) | 2.26 µM (inactive) |
| Nc1ncnc2c1ncn2CCCNO | > 100 µM (inactive) | > 100 µM (inactive) | > 100 µM (inactive) | > 100 µM (inactive) | > 100 µM (inactive) | > 100 µM (inactive) | > 100 µM (inactive) | > 100 µM (inactive) | > 100 µM (inactive) | > 100 µM (inactive) | > 100 µM (inactive) | > 100 µM (inactive) | > 100 µM | > 100 µM (inactive) | > 100 µM (inactive) | > 100 µM (inactive) | > 100 µM (inactive) | > 100 µM (inactive) | > 100 µM (inactive) |
